US9200171B2, “AZO compound and ink containing the compound” (MITSUBISHI CHEMICAL CORPORATION, priority 2011, dated 2015)
In brackets after ≈: the same amount, converted by molar mass.

Key:
Assay type in all cases: physicochemical
[1] = Absorption-maximum wavelength λmax, molar extinction coefficient ε and solution colour in each solvent
Procedure: Each of the compounds 1 to 15 and the comparative example compounds 1 and 2 (1 mg each) was dissolved in each solvent (100 ml) and measurement of absorption spectra was performed on Hitachi spectrophotometer U-4100 using a quartz cell having an optical path length for measurement of 10 mm. From the resulting spectra, absorption-maximum wavelength λmax (nm) and molar extinction coefficient ε ([…]) were determined.

[2] = Solubility C (saturated concentration at 5° C.) of compound in low-polarity solvent and product εC; settings: for ε · C: C at 5° C.; for Solubility / solubility at 24 h: at 5° C.; for solubility at 24 h: organic solvent or mixture, thermodynamic from solid
Procedure: The solubility C of each compound in each solvent was measured as follows.
Each compound was added to each solvent until a dissolution residue came to remain, and the mixture was subjected to an ultrasonic treatment for 30 minutes at 30° C. After the mixture was allowed to stand at 5° C. for 24 hours, centrifugal filtration was performed through a filter of 0.1 μm using a microcentrifuge (centrifugal force 5200×g). The resulting saturated solution was diluted to an appropriate concentration, and measurement of absorption spectra was performed on Hitachi spectrophotometer U-4100 using a quartz cell having an optical path length for measurement of 10 mm. The concentration of each compound was determined from a relationship between the absorbance at the absorption-maximum wavelength λmax (nm) and the molar extinction coefficient ε (L·mol^−1·cm^−1) previously measured, and the solubility C (mol·L^−1) was calculated. Moreover, the value of the product of the molar extinction coefficient ε (L·mol^−1·cm^−1) and the solubility C (mol·L^−1), εC, was determined.
Sudan Black B (manufactured by Tokyo Chemical Industry Co., Ltd.) that is a commercially available oil-soluble black dye was added to n-decane (relative permittivity 2.0, solubility in water 1 mg/L or less) until a dissolution residue came to remain, and the mixture was subjected to an ultrasonic treatment for 30 minutes at 30° C. After the mixture was allowed to stand at 5° C. for 24 hours, centrifugal filtration was performed through a filter of 0.1 μm using a microcentrifuge (centrifugal force 5200×g). The resulting saturated n-decane solution was diluted to an appropriate concentration.

[3] = Relative permittivity of solvent (impedance meter method, 1 kHz, 22° C.); settings: frequency 1 kHz
From the text: In the case where the solvent is used as a mixture, when the interaction between the solvents is small as in the invention, the relative permittivity of the mixed solvent can be approximated by multiplying relative permittivity of each solvent constituting the mixed solvent by each volume fraction and summing respective products. Moreover, when the interaction between the solvents is similarly small, solubility of the mixed solvent in water can be approximated by a value obtained by multiplying solubility of each solvent constituting the mixed solvent in water by each molar fraction and summing respective products.
Thereafter, the equivalent parallel capacity was measured while applying a test signal voltage of 0.1 V at a frequency of 1 kHz at 22° C. The relative permittivity was determined through the calculation according to the following equation to evaluate the solvent or ink. Relative permittivity=(equivalent parallel capacity)×(electrode spacing)/(electrode area)/(permittivity in vacuum (ε0)) <Method for Measuring Solubility of Solvent in Water>

[4] = Solubility of solvent in water at 25° C.; settings: pure water, thermodynamic from solid, single solvent
Procedure: Pure water (30 g) and a solvent (8 g) were introduced into 110 ml of a vial, which was shaken 200 times/minute for 4 hours in a constant-temperature tank at 25° C. The mixture after shaking was centrifuged (6000×g, for 5 minutes), the aqueous layer was sampled, and the concentration of the solvent dissolved was quantitatively determined by gas chromatography. Since Isopar was not a single compound but a mixture, the quantitative determination was performed as TOC (total organic carbon), which was converted into solubility according to the following equation, the average molecular weight being shown as Mw. Solubility [mg/L]=TOC [mg/L]×(14Mw/{12(Mw−2)}
In the case of a mixed solvent in which two or more kinds of solvents were mixed, the solubility in water was determined by multiplying the solubility of each solvent in water by each molar fraction and summing up the resulting products.
In the case where the solvent species used is unclear, the solubility in water can be measured by the above method through identification of the solvent species by mass spectroscopy or the like.

[5] = Isopar M, at absorption-maximum wavelength
[6] = mixed solvent of n-decane/Isopar L (mixing ratio 1/1)
[7] = n-decane, at absorption-maximum wavelength
[8] = tetradecane, at absorption-maximum wavelength

In the case of CCCCc1ccc(N=Nc2cc(C#N)c(N=Nc3cc(OC)c(N(CC(CC)CCCC)CC(CC)CCCC)cc3NC(C)=O)s2)cc1 (centres unmarked) [Compound 3], the Absorption-maximum wavelength ([1]; Isopar L) is reported as 667 nm, the Color tone ([1]; Isopar L solution) is reported as “blue” and the ε ([1]; Isopar L, at absorption-maximum wavelength) is reported as 75000 L/mol/cm. For the same molecule, the Absorption-maximum wavelength ([1]; Isopar M) was 668 nm, the Color tone ([1]; Isopar M solution) was “blue” and the ε [1, 5] was 72000 L/mol/cm. For the same molecule, the Absorption-maximum wavelength [1, 6] was 667 nm, the Color tone [1, 6] was “blue” and the ε [1, 6] was 75000 L/mol/cm. The Absorption-maximum wavelength ([1]; n-decane) was 667 nm, the Color tone ([1]; n-decane solution) was “blue” and the ε [1, 7] was 73000 L/mol/cm. For the same molecule, the Absorption-maximum wavelength ([1]; tetradecane) was 669 nm, the Color tone ([1]; tetradecane solution) was “blue” and the ε [1, 8] was 73000 L/mol/cm. For the same molecule, the “ε · C” value ([2]; Isopar L) was 8200 cm⁻¹, the “ε · C” value ([2]; Isopar M) was 11100 cm⁻¹ and the Solubility ([2]; in Isopar L) was 110 mM (≈ 77 mg/mL). It also gave a Solubility ([2]; in Isopar M) of 150 mM (≈ 105 mg/mL), a Solubility ([2]; in mixed solvent of n-decane/Isopar L (mixing ratio 1/1)) of 63 mM and a Solubility ([2]; in n-decane) of 140 mM (≈ 98 mg/mL). For the same molecule, the Solubility ([2]; in tetradecane) was 150 mM (≈ 105 mg/mL), the “ε · C” value [2, 6] was 4700 cm⁻¹ and the “ε · C” value ([2]; n-decane) was 9900 cm⁻¹. The “ε · C” value ([2]; tetradecane) was 10600 cm⁻¹.

In the case of CCCCC(CC)CNc1ccc(NCC(CC)CCCC)c2c1C(=O)c1ccccc1C2=O (centres unmarked) [Comparative example compound 1, reference compound], the Absorption-maximum wavelength ([1]; Isopar M) is reported as 651 nm, the Color tone ([1]; Isopar M solution) is reported as “blue” and the ε [1, 5] is reported as 17000 L/mol/cm. For the same molecule, the Absorption-maximum wavelength ([1]; n-decane) was 652 nm, the Color tone ([1]; n-decane solution) was “blue” and the ε [1, 7] was 17000 L/mol/cm. The Absorption-maximum wavelength ([1]; tetradecane) was 651 nm, the Color tone ([1]; tetradecane solution) was “blue” and the ε [1, 8] was 17000 L/mol/cm. For the same molecule, the “ε · C” value ([2]; Isopar M) was 1200 cm⁻¹, the “ε · C” value ([2]; n-decane) was 460 cm⁻¹ and the solubility at 24 h ([2]; in Isopar M) was 71 mM (≈ 32.9 mg/mL). For the same molecule, the solubility at 24 h ([2]; in n-decane) was 27 mM (≈ 12.5 mg/mL), the solubility at 24 h ([2]; in tetradecane) was 94 mM (≈ 43.5 mg/mL) and the “ε · C” value ([2]; tetradecane) was 1600 cm⁻¹.

Work on n-decaline yielded a relative permittivity [3] of 2.0.

In the case of CCCCC(CC)CN(CC(CC)CCCC)c1ccc(N=Nc2sc(N=Nc3ccc(C(=O)OCC(C)C)cc3)cc2C#N)c(CC)c1 (centres unmarked) [Compound 2], the Absorption-maximum wavelength ([1]; n-decane) is reported as 635 nm, the Color tone ([1]; n-decane solution) is reported as “blue” and the ε [1, 7] is reported as 57000 L/mol/cm. For the same molecule, the Absorption-maximum wavelength ([1]; tetradecane) was 637 nm, the Color tone ([1]; tetradecane solution) was “blue” and the ε [1, 8] was 54000 L/mol/cm. The Solubility ([2]; in n-decane) was 27 mM (≈ 18.5 mg/mL), the Solubility ([2]; in tetradecane) was 27 mM (≈ 18.5 mg/mL) and the “ε · C” value ([2]; n-decane) was 1500 cm⁻¹. The “ε · C” value ([2]; tetradecane) was 1500 cm⁻¹.

With CCCCc1ccc(N=Nc2cc(C#N)c(N=Nc3cc(OC)c(N(CC(CC)CCCC)CC(CC)CCCC)cc3NC(=O)CC)s2)cc1 (centres unmarked) [Compound 13] the Absorption-maximum wavelength ([1]; n-decane) was 667 nm, the Color tone ([1]; n-decane solution) was “blue” and the ε [1, 7] was 76000 L/mol/cm. For the same molecule, the Solubility ([2]; in n-decane) was 59 mM (≈ 42.1 mg/mL) and the “ε · C” value ([2]; n-decane) was 4400 cm⁻¹.

CCCCCCCCCC [n-decane] showed a relative permittivity [3] of 2.0 and a solubility at 4 h [4] of at most 1 µg/mL.

In the case of CCCCOc1ccc(N=Nc2sc(N=Nc3ccc(N(CC(CC)CCCC)CC(CC)CCCC)cc3Cl)nc2C)cc1 (centres unmarked) [Compound 14], the Absorption-maximum wavelength ([1]; n-decane) is reported as 546 nm, the Color tone ([1]; n-decane solution) is reported as “red” and the ε [1, 7] is reported as 47000 L/mol/cm. The Solubility ([2]; in n-decane) was 150 mM (≈ 98 mg/mL) and the “ε · C” value ([2]; n-decane) was 7100 cm⁻¹.

For CCCCC(CC)COC(=O)c1ccc(N=Nc2cc(C#N)c(N=Nc3ccc(N(CC(CC)CCCC)CC(CC)CCCC)cc3NC(C)=O)s2)cc1 (centres unmarked) [Compound 8], the Absorption-maximum wavelength ([1]; Isopar M) was 638 nm, the Color tone ([1]; Isopar M solution) was “blue” and the ε [1, 5] was 78000 L/mol/cm. For the same molecule, the Absorption-maximum wavelength ([1]; n-decane) was 637 nm, the Color tone ([1]; n-decane solution) was “blue” and the ε [1, 7] was 79000 L/mol/cm. The Absorption-maximum wavelength ([1]; tetradecane) was 639 nm, the Color tone ([1]; tetradecane solution) was “blue” and the ε [1, 8] was 79000 L/mol/cm. For the same molecule, the “ε · C” value ([2]; Isopar M) was 3400 cm⁻¹, the Solubility ([2]; in Isopar M) was 44 mM (≈ 33.9 mg/mL) and the Solubility ([2]; in n-decane) was 59 mM (≈ 45.4 mg/mL). For the same molecule, the Solubility ([2]; in tetradecane) was 44 mM (≈ 33.9 mg/mL), the “ε · C” value ([2]; n-decane) was 4700 cm⁻¹ and the “ε · C” value ([2]; tetradecane) was 3500 cm⁻¹.

For CCCCc1ccc(N=Nc2cc(C#N)c(/N=N/c3ccc(N(CC(CC)CCCC)CC(CC)CCCC)cc3NC(C)=O)s2)cc1 (centres unmarked) [Compound 1], the Absorption-maximum wavelength ([1]; n-decane) was 619 nm, the Color tone ([1]; n-decane solution) was “blue” and the ε [1, 7] was 76000 L/mol/cm. For the same molecule, the “ε · C” value ([2]; n-decane) was 1800 cm⁻¹ and the solubility at 24 h ([2]; in n-decane) was 24 mM (≈ 16.1 mg/mL).

For CCCCCc1ccc(N=Nc2cc(C#N)c(/N=N/c3cc(OC)c(N(CC(CC)CCCC)CC(CC)CCCC)cc3NC(C)=O)s2)cc1 (centres unmarked) [Compound 5], the Absorption-maximum wavelength ([1]; n-decane) was 667 nm, the Color tone ([1]; n-decane solution) was “blue” and the ε [1, 7] was 75000 L/mol/cm. For the same molecule, the “ε · C” value ([2]; n-decane) was 16000 cm⁻¹ and the solubility at 24 h ([2]; in n-decane) was 220 mM (≈ 157 mg/mL).

In the case of CCCCc1ccc(N=Nc2cc(C#N)c(/N=N/c3ccc(N(CC(CC)CCCC)CC(CC)CCCC)cc3C)s2)cc1 (centres unmarked) [Compound 15], the Absorption-maximum wavelength ([1]; n-decane) is reported as 613 nm, the Color tone ([1]; n-decane solution) is reported as “blue” and the ε [1, 7] is reported as 64000 L/mol/cm. The “ε · C” value ([2]; n-decane) was 1700 cm⁻¹ and the solubility at 24 h ([2]; in n-decane) was 27 mM (≈ 16.9 mg/mL).

For CCCCC(CC)CN(CC(CC)CCCC)c1cc(NC(C)=O)c(/N=N/c2nc(Cl)c(C=O)s2)cc1OC (centres unmarked) [Compound 9], the Absorption-maximum wavelength ([1]; Isopar M) was 618 nm, the Color tone ([1]; Isopar M solution) was “blue” and the ε [1, 5] was 59000 L/mol/cm. The Absorption-maximum wavelength ([1]; n-decane) was 617 nm, the Color tone ([1]; n-decane solution) was “blue” and the ε [1, 7] was 57000 L/mol/cm. For the same molecule, the Absorption-maximum wavelength ([1]; tetradecane) was 618 nm, the Color tone ([1]; tetradecane solution) was “blue” and the ε [1, 8] was 59000 L/mol/cm. For the same molecule, the “ε · C” value ([2]; Isopar M) was 2000 cm⁻¹, the “ε · C” value ([2]; n-decane) was 3300 cm⁻¹ and the solubility at 24 h ([2]; in Isopar M) was 34 mM (≈ 19.7 mg/mL). The solubility at 24 h ([2]; in n-decane) was 58 mM (≈ 33.5 mg/mL), the solubility at 24 h ([2]; in tetradecane) was 34 mM (≈ 19.7 mg/mL) and the “ε · C” value ([2]; tetradecane) was 3300 cm⁻¹.

With CCCCc1ccc(N=Nc2cc(C#N)c(N=Nc3cc(OC)c(N(CC(CC)CCCC)CC(CC)CCCC)cc3C)s2)cc1 (centres unmarked) [Compound 7] the Absorption-maximum wavelength ([1]; n-decane) was 640 nm, the Color tone ([1]; n-decane solution) was “blue” and the ε [1, 7] was 50000 L/mol/cm. For the same molecule, the Solubility ([2]; in n-decane) was 140 mM (≈ 92 mg/mL) and the “ε · C” value ([2]; n-decane) was 6900 cm⁻¹.
